# Measurements: patent US20060147947A1, “AMPK pathway components” (priority 2002, published 2006)
# Like-named read-outs stand apart in the source and are kept apart here.
# Columns and labels:
# [1] = system: AMPK; details: cited from earlier work
# [2] = system: N2 (wild type) animals
# Text: (§1) To determine if the AMP/ATP ratio changed with age, we measured the levels of AMP, ADP, and ATP directly. We lysed 30 adult worms of the appropriate age, grown at the indicated temperature, lysed them, and separated the extract by Reversed Phase HPLC, measuring the Absorbance 260 nm. We used a C. elegans strain that lacks sperm at 25 C [CF512: fem-1(−); fer-15(−)].
# (§2) Thirty animals of the appropriate age were hand-transferred to ice-cold lysis buffer (ATP Bioluminiscense Kit, Roche), frozen in liquid nitrogen, boiled for 15 minutes, passed trough a 0.2μ filter (Nanosep), and subjected to isocratic reversed phase chromatography using a TARGA C18 250×4.6 mm 5 μM column equilibrated in 100 mM KH2PO4, pH 6.0 at 1 mL per min. Detection at 260 nm was performed using a WATERS 486 tunable detector. Peak areas were measured using PEAK EXPLORER™ software. […] Unless noted, animals were one day old adults.
# (§3) Dauer assays, heat tolerance and behavioral assays were performed as described. Starvation was performed by transfer to bacteria-free, peptone-free plates. Treatment with […] sodium azide was performed by transfer to plates with the drug; fraction alive was determined visually, six hours after transfer to normal growth. Gut fluorescence was photographed on the focal plane of the lumen with a DM505 filter on a NIKON E800 microscope. Average intensity was determined with METAMORPH™ 6.1r1 software.
# [3] = system: amp-1(ok524) animals
# Text: as §1, §2, §3
# [4] = system: amp-1(ok524) animals; details: 1 mM sodium azide for 18 hours; amp-1(ok524) versus wild type
# Method: Dauer assays, heat tolerance and behavioral assays were performed as described. Starvation was performed by transfer to bacteria-free, peptone-free plates. […] Gut fluorescence was photographed on the focal plane of the lumen with a DM505 filter on a NIKON E800 microscope. Average intensity was determined with METAMORPH™ 6.1r1 software.
# [5] = 1 mM Azide 4 hours, then no azide 1 hour
molecule,measurement,setting,value
CN(C)C(=N)N=C(N)N [Metformin],effect on AMPK activity,[1],stimulate AMPK activity
[N-]=[N+]=[N-] [sodium azide],AMP/ATP Average,[2]; 1 mM Azide 1 hour,2.08
same,AMP/ATP Average,[2]; 1 mM Azide 4 hours,2.53
same,AMP/ATP Average,[2]; [5],1.08
same,AMP/ATP Average,[3]; 1 mM Azide 1 hour,3.19
same,AMP/ATP Average,[3]; 1 mM Azide 4 hours,4.34
same,AMP/ATP Average,[3]; [5],1.24
same,AMP/ATP Average,"[3]; 1 mM Azide 4 hours, then no azide 2 hour",1.29
same,sensitivity to killing,[4],more sensitive than wild type animals to killing
Leptin: peptide hormone that increases AMPK activity when applied to cells,effect on AMPK activity,[1]; applied to cells,increases AMPK activity
"adiponectin: globular and full-length adiponectin protein (protein, UniProt Q15848 19-244, looked up) Adiponectin: ETTTQGPGVLLPLPKGACTGWMAGIPGHPGHNGAPGRDGRDGTPGEKGEKGDPGLIGPKGDIGETGVPGAEGPRGFPGIQGRKGEPGEGAYVYRSAFSVGLETYVTIPNMPIRFTKIFYNQQNHYDGSTGKFHCNIPGLYYFAYHITVYMKDVKVSLFKKDKAMLFTYDQYQENNVDQASGSVLLHLEVGDQVWLQVYGEGERNGLYADNDNDSTFTGFLLYHDTN",effect on AMPK activity,[1]; liver cells,stimulates AMPK activity
same,effect on AMPK activity,[1]; skeletal muscle,stimulate AMPK activity
